This note sets out measurements from ChEMBL document CHEMBL2331452, “3D-QSAR studies of 1,2-diaryl-1H-benzimidazole derivatives as JNK3 inhibitors with protective effects in neuronal cells” (Bioorg Med Chem Lett, 2013).

This assay concerns the target Mitogen-activated protein kinase 10 (Homo sapiens, UniProt P53779). In words: Binding affinity to JNK3 (unknown origin) by surface plasmon resonance analysis in presence of ATP.

Sequence of Mitogen-activated protein kinase 10 (P53779 whole entry): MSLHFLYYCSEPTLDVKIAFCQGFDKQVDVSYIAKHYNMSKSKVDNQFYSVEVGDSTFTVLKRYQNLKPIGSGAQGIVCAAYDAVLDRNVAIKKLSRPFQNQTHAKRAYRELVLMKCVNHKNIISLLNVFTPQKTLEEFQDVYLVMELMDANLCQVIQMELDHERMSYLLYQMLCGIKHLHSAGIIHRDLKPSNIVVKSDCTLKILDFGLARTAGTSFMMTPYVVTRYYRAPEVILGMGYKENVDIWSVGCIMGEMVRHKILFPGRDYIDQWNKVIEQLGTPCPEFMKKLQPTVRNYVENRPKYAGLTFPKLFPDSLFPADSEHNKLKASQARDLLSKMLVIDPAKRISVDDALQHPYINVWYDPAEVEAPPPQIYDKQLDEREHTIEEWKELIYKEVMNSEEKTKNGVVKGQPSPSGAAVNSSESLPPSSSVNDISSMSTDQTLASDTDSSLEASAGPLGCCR

`Oc1ccc2c(c1)nc(-c1ccc3ccccc3c1)n2-c1ccnc(NC2CCOCC2)n1`: the Kd runs as follows: (read-out: Kd) 1.66 µM; (read-out: pKd (converted)) 1.66 µM.

As for `Oc1ccc2nc(-c3ccc4ccccc4c3)n(-c3ccnc(NC4CCOCC4)n3)c2c1`, the Kd by setting is: (read-out: Kd) 6 µM; (read-out: pKd (converted)) 6.03 µM.

Regarding `O=C(C1CC1)N1CCC[C@@H](Nc2nccc(-n3c(-c4ccc5ccccc5c4)nc4cc(O)ccc43)n2)C1`, the Kd (read-out: Kd) is 2.65 µM and the Kd (read-out: pKd (converted)) is 2.63 µM.

For `c1ccc2cc(-c3nc4ccccc4n3-c3ccnc(NC4CCCCC4)c3)ccc2c1`, the Kd is, setting by setting: (read-out: Kd) 5.26 µM; (read-out: pKd (converted)) 5.25 µM.

As to `c1ccc2cc(-c3nc4ccccc4n3-c3ccnc(NC4CCOCC4)c3)ccc2c1`, the Kd runs as follows: (read-out: Kd) 4.65 µM; (read-out: pKd (converted)) 4.68 µM.

Regarding `C[C@H](O)CNc1cc(-n2c(-c3ccc4ccccc4c3)nc3ccccc32)ccn1`, the Kd (read-out: Kd) stood at 12.7 µM and the Kd (read-out: pKd (converted)) is 12.6 µM.

For the molecule `COc1ccc2c(c1)nc(-c1ccc3ccccc3c1)n2-c1ccnc(NC2CCCCC2)c1`, the Kd is, setting by setting: (read-out: Kd) 176 µM; (read-out: pKd (converted)) 178 µM.

Turning to `COc1ccc2c(c1)nc(-c1ccc(Cl)c(Cl)c1)n2-c1ccnc(NC2CCCCC2)c1`, the Kd by setting is: (read-out: Kd) 18.1 µM; (read-out: pKd (converted)) 18.2 µM.

Turning to `O=C(C1CC1)N1CCC[C@@H](Nc2cc(-n3c(-c4ccc5ccccc5c4)nc4ccccc43)ccn2)C1`, the Kd (read-out: Kd) turned out to be 10.7 µM and the Kd (read-out: pKd (converted)) is 10.7 µM.

Turning to `Oc1ccc2c(c1)nc(-c1ccc3ccccc3c1)n2-c1ccnc(NC2CCCCC2)c1`, the Kd runs as follows: (read-out: Kd) 24.5 µM; (read-out: pKd (converted)) 24.5 µM.

Consider `Oc1ccc2c(c1)nc(-c1ccc3ccccc3c1)n2-c1ccnc(NC2CCOCC2)c1`, for which the Kd was 10 µM (read-out: Kd) and 10 µM (read-out: pKd (converted)).

Consider `Oc1ccc2c(c1)nc(-c1ccc3ccccc3c1)n2-c1ccnc(N[C@@H]2CCCNC2)c1`, for which the Kd (read-out: Kd) was determined as 6.05 µM and the Kd (read-out: pKd (converted)) was 6.03 µM.

On to `O=C(C1CC1)N1CCC[C@@H](Nc2cc(-n3c(-c4ccc5ccccc5c4)nc4cc(O)ccc43)ccn2)C1`, for which the Kd (read-out: Kd) was determined as 27.7 µM and the Kd (read-out: pKd (converted)) is 27.5 µM.

Turning to `O=C(C1CC1)N1CCC[C@@H](Nc2cc(-n3c(-c4cccc(O)c4)nc4ccccc43)ccn2)C1`, the Kd is, setting by setting: (read-out: Kd) 2.64 µM; (read-out: pKd (converted)) 2.63 µM.

Turning to `C[C@H](O)CNc1cc(-n2c(-c3cccc(O)c3)nc3ccccc32)ccn1`, the Kd runs as follows: (read-out: Kd) 19.1 µM; (read-out: pKd (converted)) 19.1 µM.

Regarding `Oc1ccc2c(c1)nc(-c1ccc(Cl)c(Cl)c1)n2-c1ccnc(NC2CCCCC2)c1`, the Kd is 13.8 µM (read-out: Kd) and 13.8 µM (read-out: pKd (converted)).

For the molecule `c1ccc2cc(-c3nc4ccccc4n3-c3ccnc(NC4CCCCC4)n3)ccc2c1`, the Kd is, setting by setting: (read-out: Kd) 1.75 µM; (read-out: pKd (converted)) 1.74 µM.

As to `c1ccc2cc(-c3nc4ccccc4n3-c3ccnc(NC4CCOCC4)n3)ccc2c1`, the Kd by setting is: (read-out: Kd) 2.33 µM; (read-out: pKd (converted)) 2.34 µM.

Turning to `COc1ccc2c(c1)nc(-c1ccc3ccccc3c1)n2-c1ccnc(NC2CCCCC2)n1`, the Kd is 0.743 µM (read-out: Kd) and 0.741 µM (read-out: pKd (converted)).

For the molecule `COc1ccc2nc(-c3ccc4ccccc4c3)n(-c3ccnc(NC4CCCCC4)n3)c2c1`, the Kd runs as follows: (read-out: Kd) 1.77 µM; (read-out: pKd (converted)) 1.74 µM.

For the molecule `Clc1ccc(-c2nc3ccccc3n2-c2ccnc(NC3CCOCC3)n2)cc1Cl`, the Kd was 21.8 µM (read-out: Kd) and 21.9 µM (read-out: pKd (converted)).

For `c1ccc2cc(-c3nc4ccccc4n3-c3ccnc(N[C@@H]4CCCNC4)n3)ccc2c1`, the Kd (read-out: Kd) came to 2.98 µM and the Kd (read-out: pKd (converted)) is 2.95 µM.

For the molecule `O=C(C1CC1)N1CCC[C@@H](Nc2nccc(-n3c(-c4ccc5ccccc5c4)nc4ccccc43)n2)C1`, the Kd is, setting by setting: (read-out: Kd) 1.93 µM; (read-out: pKd (converted)) 1.95 µM.

Consider `COc1ccc2c(c1)nc(-c1ccc3ccccc3c1)n2-c1ccnc(N[C@@H]2CCCN(C(=O)C3CC3)C2)n1`, for which the Kd (read-out: Kd) was 2.91 µM and the Kd (read-out: pKd (converted)) is 2.88 µM.

Regarding `COc1ccc2nc(-c3ccc4ccccc4c3)n(-c3ccnc(N[C@@H]4CCCN(C(=O)C5CC5)C4)n3)c2c1`, the Kd by setting is: (read-out: Kd) 1.17 µM; (read-out: pKd (converted)) 1.17 µM.

For the molecule `O=C(C1CC1)N1CCC[C@@H](Nc2nccc(-n3c(-c4ccc(Cl)c(Cl)c4)nc4ccccc43)n2)C1`, the Kd is 7.69 µM (read-out: Kd) and 7.76 µM (read-out: pKd (converted)).

With `Oc1ccc2c(c1)nc(-c1ccc3ccccc3c1)n2-c1ccnc(NC2CCCCC2)n1`, the Kd was 1.89 µM (read-out: Kd) and 1.91 µM (read-out: pKd (converted)).

With `Oc1ccc2nc(-c3ccc4ccccc4c3)n(-c3ccnc(NC4CCCCC4)n3)c2c1`, the Kd is, setting by setting: (read-out: Kd) 31.7 µM; (read-out: pKd (converted)) 31.6 µM.
